Measurements published in ChEMBL document CHEMBL4706771, “Discovery of Orally Bioavailable Ligand Efficient Quinazolindiones as Potent and Selective Tankyrases Inhibitors” (ACS Med Chem Lett, 2021).

How the values were obtained:
[1] = molecular target: T1, Poly [ADP-ribose] polymerase tankyrase-1 (Homo sapiens, UniProt O95271); assay: Inhibition of human TNKS1 incubated for 1 to 2 hrs by fluorescence polarization assay
T1 sequence (O95271 whole entry): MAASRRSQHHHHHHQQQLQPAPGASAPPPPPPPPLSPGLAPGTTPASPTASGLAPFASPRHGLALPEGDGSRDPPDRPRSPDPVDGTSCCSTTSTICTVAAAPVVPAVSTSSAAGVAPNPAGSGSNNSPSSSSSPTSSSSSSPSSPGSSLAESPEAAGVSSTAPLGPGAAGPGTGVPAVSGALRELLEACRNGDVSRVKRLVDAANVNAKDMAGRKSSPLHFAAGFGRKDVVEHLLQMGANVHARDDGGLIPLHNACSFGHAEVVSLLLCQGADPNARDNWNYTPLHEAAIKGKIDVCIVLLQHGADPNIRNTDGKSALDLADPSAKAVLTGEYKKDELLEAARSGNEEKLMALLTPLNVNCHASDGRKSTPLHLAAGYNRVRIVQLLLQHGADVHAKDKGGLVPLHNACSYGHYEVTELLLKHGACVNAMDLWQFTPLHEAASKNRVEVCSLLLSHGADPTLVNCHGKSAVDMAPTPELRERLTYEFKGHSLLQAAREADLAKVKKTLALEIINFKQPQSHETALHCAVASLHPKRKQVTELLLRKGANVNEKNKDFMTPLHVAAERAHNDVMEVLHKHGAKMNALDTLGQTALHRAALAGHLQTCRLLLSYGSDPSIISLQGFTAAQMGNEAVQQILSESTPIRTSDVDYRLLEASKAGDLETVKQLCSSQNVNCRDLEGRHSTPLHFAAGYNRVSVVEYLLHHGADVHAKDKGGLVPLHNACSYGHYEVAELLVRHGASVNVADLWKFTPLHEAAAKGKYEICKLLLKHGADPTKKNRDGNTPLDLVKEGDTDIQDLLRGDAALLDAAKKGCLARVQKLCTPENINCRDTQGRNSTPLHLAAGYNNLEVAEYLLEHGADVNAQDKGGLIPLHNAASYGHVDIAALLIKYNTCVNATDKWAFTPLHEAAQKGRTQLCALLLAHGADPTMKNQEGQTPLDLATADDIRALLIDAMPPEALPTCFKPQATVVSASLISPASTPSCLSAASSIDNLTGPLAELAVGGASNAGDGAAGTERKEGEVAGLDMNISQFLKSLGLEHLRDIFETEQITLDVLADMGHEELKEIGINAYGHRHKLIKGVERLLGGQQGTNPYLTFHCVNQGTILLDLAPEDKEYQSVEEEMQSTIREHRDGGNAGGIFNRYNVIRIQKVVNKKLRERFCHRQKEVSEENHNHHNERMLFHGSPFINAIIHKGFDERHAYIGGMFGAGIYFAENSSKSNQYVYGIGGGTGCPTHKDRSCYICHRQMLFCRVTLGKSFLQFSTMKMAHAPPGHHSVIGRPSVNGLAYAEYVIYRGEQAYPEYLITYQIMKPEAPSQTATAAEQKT

[2] = Clearance in Beagle dog at 2 mg/kg, po or 1 mg/kg, iv; assay type: ADME, organism-based, Canis lupus familiaris; conditions: in vivo
[3] = Mutagenicity in Salmonella typhimurium TA1535 by ames test; assay type: toxicity; conditions: salmonella enterica subsp. enterica serovar typhimurium
Cytochrome P450 1A2 = molecular target: T2, Cytochrome P450 1A2 (Homo sapiens, UniProt P05177); assay: Inhibition of CYP1A2 (unknown origin); assay type: ADME
T2 sequence (P05177 whole entry): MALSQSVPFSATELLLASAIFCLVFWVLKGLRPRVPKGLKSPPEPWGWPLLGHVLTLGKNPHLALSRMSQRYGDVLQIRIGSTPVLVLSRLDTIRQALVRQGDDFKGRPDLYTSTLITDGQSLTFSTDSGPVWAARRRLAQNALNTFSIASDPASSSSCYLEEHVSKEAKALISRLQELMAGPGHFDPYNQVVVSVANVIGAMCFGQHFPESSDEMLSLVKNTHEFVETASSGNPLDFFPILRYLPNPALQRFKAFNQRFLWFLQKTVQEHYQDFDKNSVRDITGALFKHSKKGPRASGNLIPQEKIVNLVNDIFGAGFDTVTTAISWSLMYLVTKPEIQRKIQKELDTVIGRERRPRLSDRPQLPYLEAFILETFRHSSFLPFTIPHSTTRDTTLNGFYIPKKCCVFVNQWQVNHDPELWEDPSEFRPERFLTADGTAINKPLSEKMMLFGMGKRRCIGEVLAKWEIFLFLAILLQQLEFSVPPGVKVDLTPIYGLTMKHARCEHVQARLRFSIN

[4] = Mutagenicity in Salmonella typhimurium TA100 by ames test; assay type: toxicity; conditions: salmonella enterica subsp. enterica serovar typhimurium
[5] = Oral bioavailability in Beagle dog at 2 mg/kg; assay type: ADME, organism-based, Canis lupus familiaris; conditions: in vivo
[6] = Volume of distribution in Beagle dog at 2 mg/kg, po or 1 mg/kg, iv; assay type: ADME, organism-based, Canis lupus familiaris; conditions: in vivo
[7] = Mutagenicity in Salmonella typhimurium TA98 by ames test; assay type: toxicity; conditions: salmonella enterica subsp. enterica serovar typhimurium
[8] = Mutagenicity in Escherichia coli WP2uvrA in presence of S9 fraction by ames test; assay type: toxicity, subcellular
[9] = Half life in Sprague-Dawley rat at 8.6 mg/kg, po or 0.5 mg/kg, iv; assay type: ADME, organism-based; conditions: in vivo
[10] = Inhibition of Wnt/beta-catenin (unknown origin) expressed in human HEK293 cells expressing MSRII transfected with DNA-LF2K incubated for 24 hrs by luciferase reporter gene assay; conditions: HEK293, 24 h
[11] = Volume of distribution in C57 mouse at 3 mg/kg, po or 1 mg/kg, iv; assay type: ADME, organism-based; conditions: in vivo
[12] = Toxicity in Wistar Han rat assessed as abnormal mucoid fecal consistency at >= 100 mg/kg, po administered for 7 days and measured on day 7; assay type: organism-based; conditions: in vivo, 168 h, time 7 day
[13] = Mutagenicity in Salmonella typhimurium TA1537 by ames test; assay type: toxicity; conditions: salmonella enterica subsp. enterica serovar typhimurium
[14] = Toxicity in Wistar Han rat assessed as closed eyes at >= 100 mg/kg, po administered for 7 days and measured on day 7; assay type: organism-based; conditions: in vivo, 168 h, time 7 day
[15] = Volume of distribution in Sprague-Dawley rat at 8.6 mg/kg, po or 0.5 mg/kg, iv; assay type: ADME, organism-based; conditions: in vivo
Cytochrome P450 2D6 = Cytochrome P450 2D6 (Homo sapiens, UniProt P10635); assay: Inhibition of CYP2D6 (unknown origin); assay type: ADME
Chain of Cytochrome P450 2D6 (P10635 whole entry): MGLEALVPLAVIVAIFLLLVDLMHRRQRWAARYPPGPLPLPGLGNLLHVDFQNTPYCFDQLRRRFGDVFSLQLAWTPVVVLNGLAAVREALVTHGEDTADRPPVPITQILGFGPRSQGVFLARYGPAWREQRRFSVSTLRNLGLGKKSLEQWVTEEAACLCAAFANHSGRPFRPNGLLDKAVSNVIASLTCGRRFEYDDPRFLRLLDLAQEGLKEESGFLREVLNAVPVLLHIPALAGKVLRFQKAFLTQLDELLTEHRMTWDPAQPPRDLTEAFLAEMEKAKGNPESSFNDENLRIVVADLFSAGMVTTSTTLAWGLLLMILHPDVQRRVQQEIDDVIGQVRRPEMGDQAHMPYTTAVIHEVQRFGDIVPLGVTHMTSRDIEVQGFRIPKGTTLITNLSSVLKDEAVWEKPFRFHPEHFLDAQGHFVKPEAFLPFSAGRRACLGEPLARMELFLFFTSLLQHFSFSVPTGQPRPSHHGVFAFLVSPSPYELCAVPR

[16] = Dose normalised AUC in C57 mouse at 3 mg/kg, po; assay type: ADME, organism-based; conditions: in vivo
[17] = Toxicity in Wistar Han rat assessed as abnormal watery fecal consistency at >= 100 mg/kg, po administered for 7 days and measured on day 7; assay type: organism-based; conditions: in vivo, 168 h, time 7 day
Cytochrome P450 2C9 = Cytochrome P450 2C9 (Homo sapiens, UniProt P11712); assay: Inhibition of CYP2C9 (unknown origin); assay type: ADME
Chain of Cytochrome P450 2C9 (P11712 whole entry): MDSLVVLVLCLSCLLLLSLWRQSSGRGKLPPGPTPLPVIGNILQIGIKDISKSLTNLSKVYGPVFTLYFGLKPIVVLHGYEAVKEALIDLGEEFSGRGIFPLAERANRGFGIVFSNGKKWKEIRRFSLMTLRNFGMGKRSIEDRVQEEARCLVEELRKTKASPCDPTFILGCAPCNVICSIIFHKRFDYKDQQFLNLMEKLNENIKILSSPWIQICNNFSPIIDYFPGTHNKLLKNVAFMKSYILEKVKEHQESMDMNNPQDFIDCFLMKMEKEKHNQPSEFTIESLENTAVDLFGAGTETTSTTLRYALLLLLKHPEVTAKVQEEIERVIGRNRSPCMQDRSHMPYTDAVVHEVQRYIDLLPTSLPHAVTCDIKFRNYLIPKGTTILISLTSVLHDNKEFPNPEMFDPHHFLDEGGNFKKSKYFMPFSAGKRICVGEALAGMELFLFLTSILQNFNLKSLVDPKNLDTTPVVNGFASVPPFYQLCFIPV

[18] = Toxicity in Wistar Han rat assessed as irregular breathing at >= 100 mg/kg, po administered for 7 days and measured on day 7; assay type: organism-based; conditions: in vivo, 168 h, time 7 day
Cytochrome P450 2C19 = Cytochrome P450 2C19 (Homo sapiens, UniProt P33261); assay: Inhibition of CYP2C19 (unknown origin); assay type: ADME
Chain of Cytochrome P450 2C19 (P33261 whole entry): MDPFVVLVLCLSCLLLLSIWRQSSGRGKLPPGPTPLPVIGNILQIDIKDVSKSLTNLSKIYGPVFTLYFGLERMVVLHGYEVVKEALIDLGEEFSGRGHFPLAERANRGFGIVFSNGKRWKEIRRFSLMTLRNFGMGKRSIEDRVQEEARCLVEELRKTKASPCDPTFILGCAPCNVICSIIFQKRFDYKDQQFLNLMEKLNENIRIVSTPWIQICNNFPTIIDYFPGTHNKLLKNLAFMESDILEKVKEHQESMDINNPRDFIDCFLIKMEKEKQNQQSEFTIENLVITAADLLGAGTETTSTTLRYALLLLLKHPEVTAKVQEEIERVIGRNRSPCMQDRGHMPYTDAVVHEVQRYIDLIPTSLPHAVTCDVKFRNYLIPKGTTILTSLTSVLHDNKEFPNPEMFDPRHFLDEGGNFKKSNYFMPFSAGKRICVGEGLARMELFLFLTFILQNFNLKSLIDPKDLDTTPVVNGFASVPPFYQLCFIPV

Q: With `Cc1cccc2c1c(=O)n(C[C@H]1CC[C@H](C(=O)O)CC1)c(=O)n2Cc1cccc(C(F)(F)F)c1C#N` as the compound, how does the IC50 [1] read?
A: 4 nM

Q: And the clearance [2]?
A: 3.15 mL/min/kg

Q: What about the Activity [3] of the same compound?
A: Non-Toxic

Q: What about the IC50 (Cytochrome P450 1A2) of the same compound?
A: > 100 µM

Q: What about the Activity [4] of the same compound?
A: Non-Toxic

Q: What about the bioavailability [5] of the same compound?
A: 52.2%

Q: What about the Vd [6] of the same compound?
A: 2.12 L/kg

Q: And the Activity [7]?
A: Non-Toxic

Q: And the Activity [8]?
A: Non-Toxic

Q: And the half-life [9]?
A: 233 min

Q: What about the IC50 [10] of the same compound?
A: 20 nM

Q: And the Vd [11]?
A: 1.34 L/kg

Q: What about the Activity [12] of the same compound?
A: Toxic

Q: And the Activity [13]?
A: Non-Toxic

Q: What about the Activity [14] of the same compound?
A: Toxic

Q: What about the Vd [15] of the same compound?
A: 0.97 L/kg

Q: What about the IC50 (Cytochrome P450 2D6) of the same compound?
A: > 100 µM

Q: What about the AUC/dose [16] of the same compound?
A: 5831 ng·h/mL

Q: And the Activity [17]?
A: Toxic

Q: What about the IC50 (Cytochrome P450 2C9) of the same compound?
A: 84 µM

Q: And the Activity [18]?
A: Toxic

Q: What about the IC50 (Cytochrome P450 2C19) of the same compound?
A: 36 µM
